Starred links: 1 amine or outer side, 2 acyl side, 3 side chain; linkers in the order of their positions; H or OH if unused. Non-standard residues stand in square brackets, D forms with d. Residues, ends and D or L forms follow the SMILES beside them. Groups on a side chain read outwards from the residue. *: point of attachment. C18 diacid = O=C(O)CCCCCCCCCCCCCCCCC(=O)*; γGlu = O=C(O)[C@H](CCC(=O)[*:2])N[*:1]; αMeF = C[C@](N)(Cc1ccccc1)C(=O)O; Aib = CC(C)(N)C(=O)O

Broadly, the EC50 is the midpoint of the concentration-response curve. By fraction remaining is commonly meant what is left of the initial amount, in per cent.

In data set [1] the test system is GLP-1R knockout (KO) mice. The data set is described as follows: Glucose change in GLP-1R knockout mice. Format: in vivo, mouse. As to conditions: GLP-1R KO mice, s.c., 120 min vs 0 min, somatostatin pretreatment (octreotide) 30 min prior to cpd. The method in brief: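 GLP-1R knockout mice (n=4-8/group, sorted by body weight) were fasted 2 h, and in some studies pretreated with octreotide 10 mg/kg 30 min before peptide injection. Mice were reused up to 3 times with at least 1-week wash-out.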

Data set [2] concerns wildtype (WT) mice. Nature of the data set: Glucose change in wildtype mice. As to conditions: s.c., 120 min vs 0 min, somatostatin pretreatment (octreotide) 30 min prior to cpd. Format: in vivo, mouse. The method in brief: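 Wildtype mice aged 8-14 weeks, fasted 2 h, sometimes pre-treated with octreotide 10 mg/kg 30 min before peptide injection. Blood glucose by glucometer at -30, 0, 30, 60, 120, 180, 240 and 360 min; n=4-8/group, mice reused up to 3 times with ≥1 week wash-out.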

The target of data set [3] is human glucagon receptor (hGCGR) (Homo sapiens, UniProt P47871). Nature of the data set: cAMP production (HTRF) in CHO cells expressing hGCGR. The class given is cell-based. Details: expressed in transfected cells. The settings on record: Table 6, peptides modified at position 17; cAMP in CHO hGCGR cells; geometric mean; read-out: hGluc-R EC50. The method in brief: (§1)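 Potency values represent EC50 from 4-parameter logistic curves of HTRF % Delta F signal. Receptor-expressing CHO cells (hGCGR 2×10^5 cells/mL, hGLP-1R 1×10^5 cells/mL) were exposed for 30 min at room temperature before two-step cAMP detection.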
(In general: Cyclic AMP is a second messenger, typically raised through Gs and lowered through Gi signalling.)

The target in data set [4] is human GLP-1 receptor (hGLP-1R) (Homo sapiens, UniProt P43220). The data set is described as follows: cAMP production (HTRF) in CHO cells expressing hGLP-1R. The class given is cell-based. Details: expressed in transfected cells. The essentials:
as §1

Data set [5] can be described thus: Proteolytic resistance to FasSSGF containing porcine pancreatic pepsin. The class given is in vitro ADME. The settings on record: pig, simulated gastric fluid. The essentials: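 Peptide (250 μM stock in FasSSGF) mixed 1:1 with porcine pepsin stock (0.5 mg/mL in FasSSGF) and held at 37° C; samples at 0, 5, 10, 15 and 30 min quenched in ammonium bicarbonate, pH 8. Intact peptide remaining estimated by RP-HPLC peak area, UV 210 nm.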

For data set [6], the target named is T1, recombinant Neprilysin (Homo sapiens, UniProt P08473).
T1 construct: purchased R&D Systems 1182-ZNC-010
Nature of the data set: Proteolytic resistance to neprilysin. The class given is in vitro ADME. As to conditions: pH 8.3. The essentials:
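Peptide stock (~250 μM) mixed 1:1 with neprilysin stock (100 μg/mL) in Tris/NaCl/NaHCO3 buffer, pH 8.3, at 37° C. Aliquots at 0, 30 min, 1, 2, 4, 24 h quenched in TFA/acetonitrile. Intact peptide estimated by RP-HPLC peak area at 210 nm.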

T1 sequence (P08473 52-750 limits assumed): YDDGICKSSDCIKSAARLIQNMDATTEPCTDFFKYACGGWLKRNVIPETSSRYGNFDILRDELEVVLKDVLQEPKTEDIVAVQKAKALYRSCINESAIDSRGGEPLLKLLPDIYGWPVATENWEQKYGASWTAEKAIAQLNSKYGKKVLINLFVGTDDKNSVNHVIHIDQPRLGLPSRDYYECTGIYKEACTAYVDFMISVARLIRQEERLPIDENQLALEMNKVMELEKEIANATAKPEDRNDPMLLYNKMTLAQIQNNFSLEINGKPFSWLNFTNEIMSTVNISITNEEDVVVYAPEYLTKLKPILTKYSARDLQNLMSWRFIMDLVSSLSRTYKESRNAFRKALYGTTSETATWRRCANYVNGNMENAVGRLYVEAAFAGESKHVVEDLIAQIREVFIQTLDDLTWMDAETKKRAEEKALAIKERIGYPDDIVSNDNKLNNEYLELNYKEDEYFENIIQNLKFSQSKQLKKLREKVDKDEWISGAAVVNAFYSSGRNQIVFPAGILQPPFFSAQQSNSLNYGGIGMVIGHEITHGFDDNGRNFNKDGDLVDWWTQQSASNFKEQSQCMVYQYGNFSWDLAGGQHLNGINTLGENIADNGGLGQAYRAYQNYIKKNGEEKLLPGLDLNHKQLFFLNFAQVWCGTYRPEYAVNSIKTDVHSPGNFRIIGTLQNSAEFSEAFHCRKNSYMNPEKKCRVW
Chain of human GLP-1 receptor (hGLP-1R) (P43220 24-463): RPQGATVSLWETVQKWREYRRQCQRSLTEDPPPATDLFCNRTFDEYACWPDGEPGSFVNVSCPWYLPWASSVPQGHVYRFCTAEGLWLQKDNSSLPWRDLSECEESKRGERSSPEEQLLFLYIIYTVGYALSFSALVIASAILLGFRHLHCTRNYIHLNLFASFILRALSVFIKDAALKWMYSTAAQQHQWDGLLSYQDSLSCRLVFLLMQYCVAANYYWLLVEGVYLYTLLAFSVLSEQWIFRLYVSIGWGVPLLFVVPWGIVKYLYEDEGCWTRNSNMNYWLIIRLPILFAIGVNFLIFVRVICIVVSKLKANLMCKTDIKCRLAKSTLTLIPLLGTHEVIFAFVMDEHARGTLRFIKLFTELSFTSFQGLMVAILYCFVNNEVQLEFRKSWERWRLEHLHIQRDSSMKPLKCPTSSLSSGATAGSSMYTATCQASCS
Chain of human glucagon receptor (hGCGR) (P47871 26-477): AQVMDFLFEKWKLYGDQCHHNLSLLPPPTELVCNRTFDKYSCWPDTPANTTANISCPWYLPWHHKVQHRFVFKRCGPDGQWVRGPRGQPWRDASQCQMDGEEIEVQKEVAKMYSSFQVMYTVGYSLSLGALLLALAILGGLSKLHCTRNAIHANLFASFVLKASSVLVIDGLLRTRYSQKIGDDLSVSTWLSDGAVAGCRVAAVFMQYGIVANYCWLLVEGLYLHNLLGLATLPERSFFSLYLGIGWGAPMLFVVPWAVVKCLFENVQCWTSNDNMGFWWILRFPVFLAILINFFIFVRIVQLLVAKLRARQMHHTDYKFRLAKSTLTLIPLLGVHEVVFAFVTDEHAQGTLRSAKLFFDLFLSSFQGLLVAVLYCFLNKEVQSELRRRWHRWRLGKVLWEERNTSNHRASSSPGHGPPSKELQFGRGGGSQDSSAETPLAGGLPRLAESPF

`CC[C@H](C)[C@H](NC(=O)[C@H](Cc1c[nH]c2ccccc12)NC(=O)[C@H](CCC(=O)O)NC(=O)[C@@H](NC(=O)[C@](C)(Cc1ccccc1)NC(=O)[C@H](CC(=O)O)NC(=O)[C@H](CCC(N)=O)NC(=O)[C@H](C)NC(=O)[C@H](C)NC(=O)[C@H](CCCCNC(=O)CC[C@H](NC(=O)CCCCCCCCCCCCCCCCC(=O)O)C(=O)O)NC(=O)[C@H](CO)NC(=O)[C@H](CC(=O)O)NC(=O)[C@H](CC(C)C)NC(=O)[C@](C)(Cc1ccccc1)NC(=O)[C@H](CCCCN)NC(=O)[C@H](CO)NC(=O)[C@@H](NC(=O)[C@H](CC(=O)O)NC(=O)[C@H](CO)NC(=O)[C@@H](NC(=O)[C@](C)(Cc1ccccc1)NC(=O)[C@H](CO)NC(=O)CNC(=O)[C@H](Cc1c[nH]cn1)NC(=O)C(C)(C)NC(=O)[C@@H](N)Cc1c[nH]cn1)[C@@H](C)O)C(C)C)C(C)C)C(=O)N[C@@H](C)C(=O)N[C@@H](CC(N)=O)C(=O)N[C@H](C(N)=O)[C@@H](C)O` [Peptide 7] (H-H[Aib]HGS[αMeF]TSDVSK[αMeF]LDSK([γGlu-C18 diacid])AAQD[αMeF]VEWIANT-NH2; N-terminus assumed): the “GLP-1R KO % glucose change 120 min” value in data set [1] (1.5 nmol/kg) was 80.8%. Further, the “GLP-1R KO % glucose change 120 min” value in data set [1] (5 nmol/kg) is given as 152.9%. In data set [2] (1.5 nmol/kg), the “WT % glucose change 120 min” value stood at 5.4%. Besides, the “WT % glucose change 120 min” value in data set [2] (5 nmol/kg) was −21.2%. Further, the EC50 in data set [3] is 0.0307 nM. In addition, the EC50 in data set [4] (Table 6, peptides modified at position 17, cAMP in CHO hGLP-1R cells, geometric mean, read-out: hGLP-1R EC50) came to 0.0846 nM. Also, the “% Relative Potency Ratio” value in data set [4] (Table 6, % GLP-1R activity relative to GLP-1 / % GlucR activity relative to glucagon) is 0.7. Further, in data set [5], the share remaining at 5 min, 125 µM was 81%; the amount remaining at 0.25 h, 125 µM is 35%; the amount remaining at 0.5 h, 125 µM was 18%. In data set [6] (isolated enzyme neprilysin), the share remaining at 0.5 h is 100%, the amount remaining at 2 h stood at 100%, the share remaining at 4 h came to 97% and the fraction remaining at 24 h is 84%. Moreover, the “% intact peptide over time” value in data set [6] is given as 100%.

These data come from patent US20250353891A1 (MEDIMMUNE LIMITED, priority 2022, published 2025).
